The text below walks through data of patent publication US20260224526A1, “SALT OF DIPEPTIDE COMPOUND, PREPARATION METHOD THEREOF, AND USE THEREOF” (ZHEJIANG HUAHAI PHARMACEUTICAL CO., LTD., priority 2023, published 2026).

≈ marks a conversion by molar mass, not a printed value. Counter-ions that a name gives are not always drawn. Like-named read-outs stand apart in the source and are kept apart here.

The test system of data set [1] is deep vein thrombosis. As to the kind of experiment: Rats model of deep vein thrombosis. The following applies: for antithrombotic efficacy, Form I and dabigatran etexilate compared: at the same dose, oral. Type of data set: in vivo, SD rats. The text has this:
Experimental animals: SD rats (body weight 220 to 250 g, sex: male)
The thrombus was removed and weighed.

Data set [2] is described as follows: Blood drug level in rats model of deep vein thrombosis. In kind it is in vivo, SD rats.
Data set [3] can be described thus: Moisture adsorption content / hygroscopicity. Type of data set: physicochemical.
A short description of data set [4]: Form III stability: mechanical milling and storage at 60° C./sealed condition. In kind it is physicochemical.
The nature of data set [5]: Solubility. Type of data set: physicochemical.
The nature of data set [6]: pKa. In kind it is physicochemical.
Data set [7] is described as follows: DVS (Dynamic Vapor Sorption) water absorption. In kind it is physicochemical.
Data set [8] is described as follows: Partition coefficient. In kind it is physicochemical.
[9] abbreviates: intravenous infusion of 0.1 mg/kg/h in rats.

In the case of `CC(C)C[C@@H](NCC(=O)O)C(=O)N1CCC[C@H]1C(=O)NCc1ccc(C(=N)N)cc1` [Compound V], the “antithrombotic effect compared with oral 5 mg/kg Form I” value in data set [1] (setting [9]) is reported as “comparable”. In data set [2] (setting [9]), the “blood drug levels of compound V compared with oral 5 mg/kg Form I” value is listed as “comparable”.
As to `CCCCCCOC(=O)N=C(N)c1ccc(NCc2nc3cc(C(=O)N(CCC(=O)OCC)c4ccccn4)ccc3n2C)cc1` [Dabigatran etexilate, reference compound], in data set [1] (rats), the “antithrombotic efficacy, Form I and dabigatran etexilate compared” value is “basically equivalent”.
In the case of `CCCCCCOC(=O)NC(=N)c1ccc(CNC(=O)[C@@H]2CCCN2C(=O)[C@@H](CC(C)C)NCC(=O)OCC)cc1` [Form A of the monohydrochloride], the Moisture adsorption content in data set [3] was 0.5 wt %.
As for `CCCCCCOC(=O)NC(=N)c1ccc(CNC(=O)[C@@H]2CCCN2C(=O)[C@@H](CC(C)C)NCC(=O)OCC)cc1` [Form B of the monohydrochloride], in data set [3], the Hygroscopicity result is “(Hygroscopic)” and the Moisture adsorption content came out at 3.0 wt %.
`CCCCCCOC(=O)NC(=N)c1ccc(CNC(=O)[C@@H]2CCCN2C(=O)[C@@H](CC(C)C)NCC(=O)OCC)cc1` [Form III] gave a purity after storage in data set [4] (60° C./sealed condition for 7 days) of 89.35%. Also, the purity before storage in data set [4] (before storage at 60° C./sealed condition) came to 95.81%.
For the compound `CCCCCCOC(=O)NC(=N)c1ccc(CNC(=O)[C@@H]2CCCN2C(=O)[C@@H](CC(C)C)NCC(=O)OCC)cc1` [Form I], the Thrombosis inhibition rate in data set [1] (10 mg/kg, oral gavage, rats) came out at 70.0%. In addition, in data set [1] (rats), the “antithrombotic efficacy, Form I and dabigatran etexilate compared” value is “basically equivalent”. Also, the solubility in data set [5] (BA, organic solvent or mixture, read-out: Solubility) was < 0.3 mg/mL; in data set [5] (acetonitrile and dichloromethane) it was 9.0, 10.0, 11.0, 12.0 and 13.0), readily soluble; in data set [5] (buffer solutions with different pH values (1.2, 2.0, 3.0, 4.0, 5.0, 6.0, 7.0, 8.0, 9.0, 10.0, 11.0, 12.0 and 13.0)), “Highly soluble in buffer solutions with different”; in data set [5] (organic solvent or mixture, AC (Acetic acid), read-out: Solubility), > 250 mg/mL; in data set [5] (organic solvent or mixture, ACN (Acetonitrile), read-out: Solubility), > 250 mg/mL; in data set [5] (organic solvent or mixture, DMSO (Dimethyl sulfoxide), read-out: Solubility) it was > 250 mg/mL. In addition, the solubility is ~125 mg/mL (≈ 218 mM) in data set [5] (organic solvent or mixture, Diox (1,4-Dioxane), read-out: Solubility); > 250 mg/mL in data set [5] (organic solvent or mixture, EtOH (Ethanol), read-out: Solubility); < 0.3 mg/mL in data set [5] (organic solvent or mixture, Hept (n-Heptane), read-out: Solubility); ~167 mg/mL (≈ 291 mM) in data set [5] (organic solvent or mixture, IPA (Isopropyl alcohol), read-out: Solubility); ~0.5 mg/mL (≈ 0.871 mM) in data set [5] (organic solvent or mixture, IPAc (Isopropyl acetate), read-out: Solubility); ~1.6 mg/mL (≈ 2.79 mM) in data set [5] (organic solvent or mixture, MEK (Methyl ethyl ketone), read-out: Solubility). Besides, the solubility is < 0.3 mg/mL in data set [5] (organic solvent or mixture, MTBE (Methyl tert-butyl ether), read-out: Solubility); ~167 mg/mL (≈ 291 mM) in data set [5] (organic solvent or mixture, NBA (n-Butanol), read-out: Solubility); ~11.1 mg/mL (≈ 19.3 mM) in data set [5] (organic solvent or mixture, THF (Tetrahydrofuran), read-out: Solubility); < 0.3 mg/mL in data set [5] (organic solvent or mixture, Tol (Toluene), read-out: Solubility); > 250 mg/mL in data set [5] (water, read-out: Solubility). Also, the Hygroscopicity entry in data set [3] was “Hygroscopic”. The “blood drug levels of compound V” value worked out at 190.1 ng/mL in data set [2] (oral administration of 2.5 mg/kg of Form I to rats), 181.3 ng/mL in data set [2] (oral administration of 5 mg/kg of Form I to rats), 341.9 ng/mL in data set [2] (oral administration of 10 mg/kg of Form I to rats) and 609.7 ng/mL in data set [2] (oral administration of 20 mg/kg of Form I to rats). Further, the pKa1 in data set [6] is 4.94. Further, the pKa2 in data set [6] is on record as 5.54. In addition, in data set [6], the pKa3 came out at 10.61. In addition, the “form of sample after DVS test” value in data set [7] (after DVS test) is listed as “converted to amorphous form”. Moreover, in data set [7] (high humidity), the “behaviour of sample at high humidity (DVS)” value is “undergoes deliquescence”. For the same compound, in data set [8], the logP was > 3.38. Also, the “Log D7.4” value in data set [8] (pH 7.4) is 2.06.
As to `CCCCCCOC(=O)NC(=N)c1ccc(CNC(=O)[C@@H]2CCCN2C(=O)[C@@H](CC(C)C)NCC(=O)OCC)cc1` [dihydrochloride], the aqueous solubility entry in data set [5] (water) is given as “excellent aqueous solubility”.
On the same count and under the same terms, the result for `CCCCCCOC(=O)NC(=N)c1ccc(CNC(=O)[C@@H]2CCCN2C(=O)[C@@H](CC(C)C)NCC(=O)OCC)cc1` [free alkali of the compound of formula II] reads “insoluble in water”; that for `CCCCCCOC(=O)NC(=N)c1ccc(CNC(=O)[C@@H]2CCCN2C(=O)[C@@H](CC(C)C)NCC(=O)OCC)cc1` [monohydrochloride], “excellent aqueous solubility”.
